Assay results as given in publication PMC7234998, “Quantification of Colistin in Plasma by Liquid Chromatography-Tandem Mass Spectrometry: Application to a Pharmacokinetic Study” (Scientific Reports, 2020).
Positions of bridges follow the written chain, without caps; N, C: chain ends. Non-standard residues stand in square brackets, D forms with d. Residues, ends and D or L forms follow the SMILES beside them. *: point of attachment. X1 = CC[C@H](C)CCCCC(=O)*; Dab = NCC[C@H](N)C(=O)O

Key:
[1] = rats, cited from earlier work
Source text: Following the validation of the present analytical method, the method was applied to estimate the pharmacokinetic profile of colistin in experimental rats. Choosing the animal species to perform the pharmacokinetic study was based on the similarity of colistin pharmacokinetic profile between animal species and humans. […] The species that has the closest pharmacokinetic profile to humans are rats[43]–[45]. […] This is because of a distribution phase that occurs before the decline in the colistin concentration. This finding is in agreement with previous reports[43],[44],[49]. In the present study, we observed that colistin concentration declined rapidly over 180–240 min which is consistent with earlier findings[45],[49]. […] In the present study, the Vd of colistin was 2.45 ± 1.30 L/kg in ...

[2] = Freeze-thaw stability of colistin in rat plasma QC samples; settings: −70 °C to 25 °C after 24 hours, five cycles, n = 4; for Found concentration after freeze-thaw: LC-MS/MS, mean ± S.D., SD
Protocol: (§1) Colistin sulfate was prepared by dissolving 5.5 mg of the powder in 5 ml water to make a stock solution of 1 mg/ml of colistin. PMB sulfate solution of 1 mg/ml was also prepared by dissolving 5.8 mg of PMB sulfate powder in 5 ml water. Both solutions were stored at −70 °C. Calibration standards and quality controls were prepared by spiking different amounts of colistin sulfate stock solution in plasma. Aliquots of colistin sulfate were further diluted to provide standard concentrations of 0.5, 1, 2, 5, 10, 15, and 20 μg/mL (equivalent to: 78, 156, 312, 780, 1560, 2340 and 3120 ng/ml of colistin A and 353, 706, 1412, 3350, 7060, 10590 and 14120 ng/ml of colistin B) whereas, the concentrations of 1.5, 3.5, 7.5 and 17.5 μg/mL (which contained 234, 546, 1170 and 2730 ng/ml of colistin A and 1059, 2471, 5295 and 12355 ng/ml of colistin B) were considered as quality controls. The calibration standards and quality controls were aliquoted (150 μL) into 0.5 ml Eppendorf tubes and stored at −70 °C pending analysis.
(§2) To 100 μl rat plasma sample, 5 μl of 500 μg/ml IS was added and followed by addition of 400 μl of 50:50 (v/v) methanol-TCA (10%). The samples were vortex-mixed for 1 min, rota-mixed for 10 min at 40 rpm and then centrifuged at 12,000 rpm for 10 min. Following centrifugation, 400 µl of the supernatant was collected and re-extracted with solid phase extraction (SPE) using SPE (Oasis HLB 1 cc, 30 mg) cartridges. First, the cartridges were conditioned with 500 μl of methanol then 500 μl of water. After that, 400 μl of the supernatant was transferred and then washed with 500 μl of water. The tubes were changed and then the samples were eluted with 150 μl of methanol: water: formic acid (80:19:1%, v/v/v) solution. The elution step was repeated twice, and then 250 μl of the solution was transferred to the low volume inserts and 20 μl of this solution was injected into the LC-MS system.
(§3) Various types of stability tests including freeze-thaw stability and long-term stability were assessed. The freeze-thaw stability test was performed by removing the four QC samples out of the storage temperature (−70 °C) and keeping them at room temperature (25 °C) until thawing and then aliquots of the samples were analyzed. After that, the samples were again returned back for freezing in the same storage conditions for 12 to 24 h. The freeze-thaw cycles were repeated five times and 4 replicates of the analytes were assayed. In addition, a long-term stability test was performed to ensure that the stability of the samples for a time that exceeds the interval between the first sample collection and the last sample analysis. Four aliquots of low, medium and high concentrations (QC) were kept for 20 days in the same temperature used to store samples regularly at the lab (−70 °C) then analyzed and compared to the nominal concentration of freshly prepared QC samples. Moreover, the stability in the autosampler (4 °C) was assessed by keeping the processed samples under this condition and assayed periodically at different times for up to 24 hours. In addition, benchtop stability test was performed by keeping the samples at room temperature (25 °C) for six hours and analyzing them during this time. The mean value results of stability tests were calculated and compared to the nominal concentrations.

[3] = Benchtop stability of colistin in rat plasma samples at room temperature; settings: 25 °C for 6 hours, n = 4; for Found concentration in benchtop stability study: LC-MS/MS, mean ± S.D., SD
Protocol: as §1, §2, §3

[4] = Long-term stability of colistin in rat plasma QC samples at −70 °C; settings: 20 days; for Found concentration after long-term storage: LC-MS/MS, mean ± S.D., n = 5, SD; for Bias% from nominal concentration after long-term storage: n = 5
Protocol: as §1, §2, §3

[5] = Pharmacokinetic study of colistin in rats after IV colistin sulfate, plasma LC-MS/MS, non-compartmental analysis; settings: male, Sprague Dawley, rat, 15 mg/kg
Protocol: as §2
Male Sprague Dawley® (MSD) rats (21 weeks ± 3 days of age) with a body weight of 450–550 g [supplied by the Animal Resource Center (ARC), Health Sciences Center (HSC), Kuwait University] were used to estimate the pharmacokinetic profile of colistin. The animals (n = 8) were housed in 12 h/12 h light/dark cycle. […] All the animals were subjected to left jugular vein cannulation, IV drug administration, and subsequent blood sampling. All surgical procedures were carried out under strict aseptic conditions. In addition, all surgical instruments and materials were autoclaved, all solutions were sterile and the surgical procedure was performed with the aid of surgical microscope (Leica wild M690). Animal body temperatures were maintained around 37.6 °C (rectal) by placing the animals on an electronic heating pad throughout the surgical procedure as well as the post-surgical recovery period. About 350 µl of rat blood sample was collected from each animal. From this sample, 50 µl of blood sample was transferred to a capillary tube, sealed with the sealant clay at one end and centrifuged to calculate the Packed Cell Volume (PCV); i.e., Hematocrit. The remaining rat blood sample (300 µl) was centrifuged at 9000 X g for 10 min and aliquots of 100 µl of plasma sample was collected and stored at −70 °C pending analysis.
Colistin was quantified in the biological samples by the present LC-MS/MS method and then the pharmacokinetic parameters (t1/2, CL, Vd, AUC) were estimated by non-compartmental method employing Kinetica® software, version 5.1 (Thermo Fisher Scientific, Waltham, USA).

[6] = Autosampler stability of processed colistin rat plasma samples at 4 °C; settings: 4 °C for 24 hours, n = 4; for Found concentration in autosampler stability study: LC-MS/MS, mean ± S.D., SD
Protocol: as §1, §2, §3

[7] = in vivo, cited from earlier work
Protocol: However, colistin sulphate has been reported to be well absorbed after an oral administration in infants. […] The standards and quality control samples concentrations were selected based on the therapeutic range of colistin. The expected colistin serum levels according to the antimicrobial reference laboratory assay service are 5–15 mg/L and 2–4 mg/L for the peak and tough concentrations, respectively. […] Choosing the animal species to perform the pharmacokinetic study was based on the similarity of colistin pharmacokinetic profile between animal species and humans. […] The species that has the closest pharmacokinetic profile to humans are rats[43]–[45].

[8] = rat plasma QC 1.5 μg/mL colistin (nominal 234 ng/ml colistin A, 1059 ng/ml colistin B)
[9] = rat plasma QC 3.5 μg/mL colistin (nominal 546 ng/ml colistin A, 2471 ng/ml colistin B)
[10] = rat plasma QC 7.5 μg/mL colistin (nominal 1170 ng/ml colistin A, 5295 ng/ml colistin B)
[11] = rat plasma QC 17.5 μg/mL colistin (nominal 2730 ng/ml colistin A, 12355 ng/ml colistin B)
[12] = processed rat plasma QC 1.5 μg/mL colistin (nominal 234 ng/ml colistin A, 1059 ng/ml colistin B)
[13] = processed rat plasma QC 3.5 μg/mL colistin (nominal 546 ng/ml colistin A, 2471 ng/ml colistin B)
[14] = processed rat plasma QC 7.5 μg/mL colistin (nominal 1170 ng/ml colistin A, 5295 ng/ml colistin B)
[15] = processed rat plasma QC 17.5 μg/mL colistin (nominal 2730 ng/ml colistin A, 12355 ng/ml colistin B)

Molecule: CC[C@H](C)CCCCC(=O)N[C@@H](CCN)C(=O)N[C@H](C(=O)N[C@@H](CCN)C(=O)N[C@H]1CCNC(=O)[C@H]([C@@H](C)O)NC(=O)[C@H](CCN)NC(=O)[C@H](CCN)NC(=O)[C@H](CC(C)C)NC(=O)[C@@H](CC(C)C)NC(=O)[C@H](CCN)NC1=O)[C@@H](C)O [Colistin A, colistin A] (X1-[Dab]T[Dab][Dab][Dab][dL]L[Dab][Dab]T; lactam 4-C)
- CL of the individual components ([1]; Sivanesan and co-workers, ref 45 (sentence ends with 41)): 2.75 ± 0.54 mL/min/kg
- t1/2 of the major components [1]: 1.37 ± 0.515 h
- Found concentration after freeze-thaw [2, 8]: 265.4 ± 35.10 ng/mL
- Bias% from nominal concentration after freeze-thaw [2, 8]: 13.42%
- Found concentration after freeze-thaw [2, 9]: 615.27 ± 30.29 ng/mL
- Bias% from nominal concentration after freeze-thaw [2, 9]: 12.69%
- Found concentration after freeze-thaw [2, 10]: 1208.93 ± 77.51 ng/mL
- Bias% from nominal concentration after freeze-thaw [2, 10]: 3.33%
- Found concentration after freeze-thaw [2, 11]: 2551.83 ± 177.97 ng/mL
- Bias% from nominal concentration after freeze-thaw [2, 11]: −6.53%
- Found concentration in benchtop stability study [3, 8]: 120.275 ± 50.32 ng/mL
- Bias% from nominal concentration in benchtop stability study [3, 8]: −48.6%
- Found concentration in benchtop stability study [3, 9]: 592.47 ± 488.56 ng/mL
- Bias% from nominal concentration in benchtop stability study [3, 9]: 8.51%
- Found concentration in benchtop stability study [3, 10]: 1047.6 ± 202.94 ng/mL
- Bias% from nominal concentration in benchtop stability study [3, 10]: −10.46%
- Found concentration in benchtop stability study [3, 11]: 5045 ± 3076.10 ng/mL
- Bias% from nominal concentration in benchtop stability study [3, 11]: 84.8%
- Found concentration after long-term storage [4, 8]: 237.24 ± 5.64 ng/mL
- Bias% from nominal concentration after long-term storage [4, 8]: 1.39%
- Found concentration after long-term storage [4, 9]: 520.76 ± 19.46 ng/mL
- Bias% from nominal concentration after long-term storage [4, 9]: −4.62%
- Found concentration after long-term storage [4, 10]: 1134.44 ± 26.11 ng/mL
- Bias% from nominal concentration after long-term storage [4, 10]: −3.04%
- Found concentration after long-term storage [4, 11]: 2719 ± 50.20 ng/mL
- Bias% from nominal concentration after long-term storage [4, 11]: −0.40%
- level at 0.5 h [5]: 4110 ng/mL
- Found concentration in autosampler stability study [6, 12]: 231.18 ± 6.22 ng/mL
- Bias% from nominal concentration in autosampler stability study [6, 12]: −1.21%
- Found concentration in autosampler stability study [6, 13]: 516.95 ± 53.28 ng/mL
- Bias% from nominal concentration in autosampler stability study [6, 13]: −5.32%
- Found concentration in autosampler stability study [6, 14]: 1034.9 ± 38.64 ng/mL
- Bias% from nominal concentration in autosampler stability study [6, 14]: −11.55%
- Found concentration in autosampler stability study [6, 15]: 2917.93 ± 341.07 ng/mL
- Bias% from nominal concentration in autosampler stability study [6, 15]: 6.88%

Molecule: colistimethate sodium [CMS]
- Vd at steady state ([7]; human): 0.34 ± 0.10 L/kg
- t1/2 ([7]; human): 2.07 ± 0.867 h
- absorption after intramuscular injection [7]: rapidly absorbed
- absorption through burns, inflamed skin or mucosal membranes [7]: not absorbed
- absorption through the GIT [7]: poorly absorbed

Molecule: colistin sulphate
- absorption after oral administration in infants ([7]; po): well absorbed
- absorption from the gastrointestinal tract (GIT) ([7]; po): poorly absorbed
- maximum serum concentration [7]: 0.13 mg/L
- time of maximum serum concentration [7]: 1.5 h
